Data reported in patent publication US20100272675A1, “METHOD OF ADMINISTERING CONJUGATES” (ENDOCYTE, INC., priority 2007, published 2010).

Key:
[1] = system: 4T1c2 cells (a breast tumor cell line); assay: Effect of ligand conjugates on tumor volume for mice with breast tumor implants; format: in vivo
Experimental: Two regimens were tested. In the first regimen, six to eight-week old (˜20-22 grams) female Balb/c mice were immunized with fluorescein isothiocyanate (FITC)-labeled keyhole limpet hemocyanin (KLH; see FIG. 5) at 35 μg/dose using a saponin adjuvant (e.g., GPI-0100; 100 μg/dose) at days 1, 15, and 29. On day 23, each animal was injected with 2.5×10^5 4T1c2 cells (a breast tumor cell line). Cancer loci were then allowed to grow. From days 42-60, all animals were injected daily ((qd×5)3; days 42-46, 49-53, and 56-60) with either phosphate buffered saline (PBS) or 500 nmol/kg of FITC-conjugated to folic acid via a gamma carboxyl-linked ethylene diamine bridge (see FIG. 4). The animals were injected on the same days with 20,000 U/dose of recombinant human IL-2. The animals were injected (TIW)3 with IL-2 in the same weeks as the animals were injected with folate-FITC.
In the second regimen, six to eight-week old (˜20-22 grams) female Balb/c mice were immunized with fluorescein isothiocyanate (FITC)-labeled keyhole limpet hemocyanin (KLH) at 35 μg/dose using a saponin adjuvant (e.g., GPI-0100; 100 μg/dose) at days 1, 15, and 29. On day 5, each animal was injected with 2.5×10^5 4T1c2 cells. Cancer loci were then allowed to grow. From days 8-50, all animals were injected daily ((qd×5)6) with either phosphate buffered saline (PBS) or 500 nmol/kg of FITC-conjugated to folic acid via a gamma carboxyl-linked ethylene diamine bridge. The animals were injected daily on days 32-50 with 20,000 U/dose of recombinant human IL-2. The animals were injected (TIW)3 with IL-2 in the same weeks as the animals were injected with folate-FITC.
The efficacy of this immunotherapy was then evaluated by monitoring tumor volume as a function of time for folate-FITC treated mice compared to control animals.

[2] = Active systemic anaphylaxis assay in guinea pigs immunized against EC90 plus GPI-0100 adjuvant; format: in vivo; settings: guinea pigs immunized days 1, 8, 15 with EC90 plus 0.5 mg GPI-0100; de-sensitized days 8-12 and 15-19 with EC17 spiked with 10% (mole) Bis-FITC-eda; s.c. challenge day 22
Experimental: Male and female guinea pigs (1 per sex per group) were immunized three times, on Days 1, 8, and 15, with various doses of EC90 plus 0.5 mg GPI-0100. A single dose of test article (EC17+/− Bis-FITC-eda) was administered (s.c.) on Day 22. Guinea pigs were de-sensitized with multiple doses of EC 17 spiked with 10% (mole) Bis-FITC-eda on Days 8-12, and 15-19. On Day 22, these animals were s.c. challenged with the same EC17/Bis-FITC-eda formulation. Clinical observations were generally taken for 1.5-2 hours post challenge. […] Complete macroscopic postmortem examinations were performed on all animals (FIG. 9).

Q: With `Nc1nc2ncc(CNc3ccc(C(=O)NC(CCC(=O)NCCNC(=S)Nc4ccc(-c5c6ccc(=O)cc-6oc6cc(O)ccc56)c(C(=O)O)c4)C(=O)O)cc3)nc2c(=O)[nH]1` (stereo not shown) [EC17] as the compound, how does the “tumor volume as a function of time compared to control animals” value ([1]; Balb/c mice immunized with KLH-FITC 35 μg/dose + GPI-0100 100 μg/dose, folate-FITC 500 nmol/kg daily plus IL-2 20,000 U/dose, early or late dosing protocol) read?
A: decreased

Q: What about the “effect on tumor volume, early dosing protocol” value ([1]; folate-FITC 500 nmol/kg daily (qd×5)6 from days 8-50, IL-2 20,000 U/dose days 32-50) of the same compound?
A: effective in decreasing tumor volume

Q: What about the “tumor volume, early versus late dosing protocol” value ([1]; folate-FITC 500 nmol/kg, late: days 42-60, early: days 8-50, plus IL-2) of the same compound?
A: similar

Q: And the “allergenicity (signs of anaphylaxis after s.c. challenge), effect of early dosing” value [2]?
A: reduces allergenicity
